Laboratory results: paper PMC2826131 (Journal of the American Chemical Society, 2010)

What was measured:
rat nNOS = rat nNOS (Rattus norvegicus, UniProt P29476); assay: NOS hemoglobin capture assay, Ki from IC50; assay type: biochemical; details: 10 μM L-arginine, calculated from IC50, mean ± SD of 2-3 experiments
ferrous nNOS heme domain = ferrous nNOS heme domain (Rattus norvegicus, UniProt P29476); assay: Ferrous difference spectrometry; assay type: binding; details: type of difference spectrum toward ferrous (dithionite-reduced) nNOS heme domain
Chain of ferrous nNOS heme domain (P29476 297-718 limits assumed): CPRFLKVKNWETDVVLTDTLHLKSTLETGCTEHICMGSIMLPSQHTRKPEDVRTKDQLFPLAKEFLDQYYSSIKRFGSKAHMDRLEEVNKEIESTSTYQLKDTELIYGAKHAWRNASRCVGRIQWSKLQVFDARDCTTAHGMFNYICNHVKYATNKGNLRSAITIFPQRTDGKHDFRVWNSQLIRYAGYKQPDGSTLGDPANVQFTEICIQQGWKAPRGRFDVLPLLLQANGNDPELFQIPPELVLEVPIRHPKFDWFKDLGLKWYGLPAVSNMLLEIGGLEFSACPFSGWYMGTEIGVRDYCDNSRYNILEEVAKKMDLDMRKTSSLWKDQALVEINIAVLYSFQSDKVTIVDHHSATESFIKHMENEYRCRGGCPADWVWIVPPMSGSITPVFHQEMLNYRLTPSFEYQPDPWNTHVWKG

ferric nNOS heme domain = ferric nNOS heme domain (Rattus norvegicus, UniProt P29476); assay: Ferric difference spectrometry; assay type: binding; details: type of difference spectrum toward ferric nNOS heme domain
Chain of ferric nNOS heme domain (P29476 297-718 limits assumed): as above

Chain of rat nNOS (P29476 whole entry, the tested form may be a part): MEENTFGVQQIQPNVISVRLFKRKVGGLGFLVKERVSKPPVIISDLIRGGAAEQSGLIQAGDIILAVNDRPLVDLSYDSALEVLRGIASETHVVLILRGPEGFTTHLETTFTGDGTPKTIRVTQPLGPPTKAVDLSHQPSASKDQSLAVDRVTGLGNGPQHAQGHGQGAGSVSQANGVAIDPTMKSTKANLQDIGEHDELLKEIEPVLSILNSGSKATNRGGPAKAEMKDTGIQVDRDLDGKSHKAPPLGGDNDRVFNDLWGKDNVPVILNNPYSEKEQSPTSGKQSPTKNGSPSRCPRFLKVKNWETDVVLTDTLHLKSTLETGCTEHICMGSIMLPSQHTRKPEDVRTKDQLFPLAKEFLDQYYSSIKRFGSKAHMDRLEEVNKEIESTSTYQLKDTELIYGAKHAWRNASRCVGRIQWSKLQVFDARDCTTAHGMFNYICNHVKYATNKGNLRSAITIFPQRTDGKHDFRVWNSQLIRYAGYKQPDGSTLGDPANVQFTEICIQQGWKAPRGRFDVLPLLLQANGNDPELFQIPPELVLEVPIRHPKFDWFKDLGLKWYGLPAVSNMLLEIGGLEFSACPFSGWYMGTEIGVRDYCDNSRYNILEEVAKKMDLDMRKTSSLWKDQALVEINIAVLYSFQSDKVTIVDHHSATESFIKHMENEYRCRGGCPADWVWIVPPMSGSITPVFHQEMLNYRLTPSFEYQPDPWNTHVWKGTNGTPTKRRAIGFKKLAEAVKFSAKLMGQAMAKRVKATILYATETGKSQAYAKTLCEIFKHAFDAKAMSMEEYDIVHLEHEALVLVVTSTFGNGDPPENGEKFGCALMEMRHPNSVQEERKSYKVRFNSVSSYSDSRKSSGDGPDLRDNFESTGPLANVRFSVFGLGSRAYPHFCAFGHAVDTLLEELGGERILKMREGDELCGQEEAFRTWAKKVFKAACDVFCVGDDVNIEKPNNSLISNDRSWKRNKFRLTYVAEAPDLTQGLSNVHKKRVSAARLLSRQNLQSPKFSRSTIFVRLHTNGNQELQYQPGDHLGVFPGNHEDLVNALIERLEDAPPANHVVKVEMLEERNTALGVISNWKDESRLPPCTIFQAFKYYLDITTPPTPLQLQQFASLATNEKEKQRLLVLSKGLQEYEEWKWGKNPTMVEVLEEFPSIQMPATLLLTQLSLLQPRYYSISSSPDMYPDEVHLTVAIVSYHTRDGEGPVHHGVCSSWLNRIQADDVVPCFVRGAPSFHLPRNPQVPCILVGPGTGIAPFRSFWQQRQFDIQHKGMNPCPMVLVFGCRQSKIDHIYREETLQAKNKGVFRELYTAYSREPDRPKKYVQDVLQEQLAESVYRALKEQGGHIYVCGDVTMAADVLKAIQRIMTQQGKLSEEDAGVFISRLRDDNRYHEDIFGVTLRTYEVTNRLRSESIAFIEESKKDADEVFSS

Row | SMILES | Ki (rat nNOS) [µM] | Fe^2+ type (ferrous nNOS heme domain) | Fe^3+ type (ferric nNOS heme domain)
1 | c1c[nH]cn1 [Imidazole] | 29.7 ± 0.8 | I | –
2 | NC(=NCCC[C@H](N)C(=O)O)N[N+](=O)[O-] [L-Nitroarginine] | – | I | I
